Test results reported in US20240390386A1, “CDK8/19 INHIBITORS FOR PREVENTING DRUG RESISTANCE” (University of South Carolina, priority 2021, published 2024).
Like-named read-outs stand apart in the source and are kept apart here.

Tests used:
MDA-MB-468 xenografts = conditions: for effect on tumor growth: SNX631 350 ppm medicated food
panel of 468 kinases = conditions: 2000 nM; cited from earlier work
PEN027 PDX tumors = conditions: for effect on event-free survival (KM): 38 days of treatment, event: tumor 2,000 mm^3 or euthanasia; for effect on tumor volume: first 10 days of treatment, everolimus 2 mg/kg daily gavage, SNX631-6 500 ppm food
[1] = everolimus 2 mg/kg daily gavage

| SMILES | tolerability based on mouse body weights (MDA-MB-468 xenografts; SNX631 350 ppm food, everolimus 2 mg/kg daily gavage) | effect on tumor growth (MDA-MB-468 xenografts; [1]) | S(10) S-score (panel of 468 kinases) | S(35) S-score (panel of 468 kinases) | toxicity based on average mouse body weights (PEN061 PDX TNBC model; SNX631-6 350 ppm food, everolimus 3 mg/kg daily gavage) | effect on tumor growth (PEN061 PDX TNBC model; after 63 days of treatment, SNX631-6 350 ppm food, everolimus 3 mg/kg daily gavage) | effect on event-free survival (KM) (PEN027 PDX tumors) | effect on tumor volume (PEN027 PDX tumors) | toxicity based on body weight changes (PEN027 PDX tumors; surviving mice) | development of in vivo resistance to everolimus (MDA-MB-468 xenografts; 150 days of study, tumor volumes and KM event-free survival (event: 500 mm^3)) | duration of full suppression of xenograft growth before resistance (MDA-MB-468 xenografts; [1]) | development of resistance (PEN061 PDX TNBC model; continued up to 158 days) | toxicity based on body weight changes (PEN027 PDX tumors; mouse, in vivo) |
| --- | --- | --- | --- | --- | --- | --- | --- | --- | --- | --- | --- | --- | --- |
| CN(C)C(=O)c1ccc(N2CCCN(c3ccnc4sc(C(N)=O)c(N)c34)CC2)cc1 [SNX631, 3-amino-4-(4-(4 (dimethylcarbamoyl)phenyl)-1,4-diazepan-1-yl)thieno[2,3-b]pyridine-2-carboxamide] | very well tolerated | modest effect on tumor growth | < 0.004 | less than 0.02 | – | – | – | – | – | – | – | – | – |
| [2H]C([2H])([2H])N(C(=O)c1ccc(N2CCCN(c3ccnc4sc(C(N)=O)c(N)c34)CC2)cc1)C([2H])([2H])[2H] [SNX631-6, 3-amino-4-(4-(4-(bis(methyl-d3)carbamoyl)phenyl)-1,4-diazepan-1-yl)thieno[2,3-b]pyridine-2-carboxamide] | – | – | – | – | lack of significant toxicity | strongly inhibited tumor growth | only a moderate effect on survival | significantly inhibited tumor volume | lack of significant toxicity | – | – | – | – |
| CO[C@H]1C[C@@H]2CC[C@@H](C)[C@@](O)(O2)C(=O)C(=O)N2CCCC[C@H]2C(=O)O[C@H]([C@H](C)C[C@@H]2CC[C@@H](OCCO)[C@H](OC)C2)CC(=O)[C@H](C)/C=C(\C)[C@@H](O)[C@@H](OC)C(=O)[C@H](C)C[C@H](C)/C=C/C=C/C=C/1C [everolimus, reference compound] | – | fully suppressed xenograft growth | – | – | – | – | strong effect | significantly inhibited tumor volume | – | all the tumors developed everolimus resistance | ~50 days of treatment | many of the tumors treated with everolimus alone developed resistance | lack of significant toxicity |
